Test results from patent EP4748844A1, “AZETIDINE COMPOUND AND MEDICAL USE THEREOF” (SHANGHAI INSTITUTE OF MATERIA MEDICA, CHINESE ACADEMY OF …, priority 2023, dated 2025).

Experiments:
[1] = tested on: STING agonist (MSA-2) stimulation; assay: In vivo anti-inflammatory effect of oral administration on STING agonist (MSA-2) stimulation; parameters: species or system C57BL6 female mice; details: I-77 20mpk
Protocol: 6-8 week C57BL6 female mice, purchased from Shanghai Jihui Experimental Animal Breeding Co., Ltd. Compound preparation method: 2 mg of I-77 powder was taken, 12 µL of PEG400 was added thereto and ultrasonically dissolved, and then 8 µL of Tween 80 was added and ultrasonically mixed to prepare a 100 mg/mL stock solution.
Experimental grouping: The control group was administered vehicle solvent; The model group was administered MSA-2 (10mpk, dissolved in 40% PEG400); The treatment group (I-77) was administered MSA-2 and I-77 (20mpk, PO). A final concentration of […] of I-77 solution was prepared by dilution with double distilled water, and 200 µL of the solution was taken and administered intragastrically into the mice in treatment group; The control group and MSA-2 group were administered intragastrically with 200 µL of vehicle solvent diluted 10 times. […] After high-speed centrifugation of blood samples, the plasma was taken and diluted by 2 times, and the levels of CXCL10 and IL6 in the plasma were detected using the Lianke ELISA kit. RNA was extracted from heart and kidney samples, and reversed to cDNA, and inflammation related cytokines (ISG15, ISG56, IL6, and IP10) in tissues were detected using qPCR technology. […]

[2] = tested on: ISG gene expression induced by MSA-2 in human THP1-Dual cells; assay: Inhibition of MSA-2-induced ISG gene expression in human THP1-Dual cells (QUANTI-Luc); assay type: cell-based; details: STING agonist MSA-2 10 µM, incubated for 24 hours
Protocol: 10 µL of compound diluted with PBS/physiological saline was added to each well of a 96 well cell culture plate. The STING agonist was MSA-2, which was added to the counted cell suspension at a final concentration of 10 µM. For the control group without compounds, 10 µL of PBS/physiological saline containing 2% DMSO was added. 3 replicate wells were set in each group. THP1-Dual cells were counted and adjusted to a cell concentration of 4×10^5/mL, and 190 µL of cells containing STING agonist were added to each well for incubation. Therefore, the final volume of each test well was 200 µL, the content of DMSO was 0.1%, and the final concentration of the compound tested was 10/3.3/1.1/0.4/0.13/0.04/0.013/0.004 µM, incubated for 24 hours. In addition, 190 µL of cells without STING agonist and 10 µL of physiological saline containing 2% DMSO were added to the blank group. 3 replicate wells were set in each group.
After 24 hours, 20 µL of culture medium for THP1-Dual cells was taken from each well and transferred to a new 96 well plate with photopermeable bottom. 50 µL of the luciferase detection reagent QUANTI-Luc™ was added, and the […] was immediately measured (avoid light). Result analysis:Inhibition rate (%) = (Con(Lum)−Treated(Lum))/Con(Lum) × 100% [formula]
The IC50 calculation of inhibitors was implemented using the Graphpad Prism 8 software's calculation method log (inhibitor) vs. response - Variable slope (four parameters), with a constrain interval of 0-100.

[3] = tested on: STING-V154M mutant autoimmune mouse disease model; assay: Inflammatory inhibitory effect of oral administration in STING-V154M mutant autoimmune mouse disease model; assay type: in vivo; details: I-77 20mpk
Protocol: The model mice were purchased from GEMPHARMATECH CO., LTD., and the wild-type C57/BL6 mice were also purchased from GEMPHARMATECH CO., LTD... Compound preparation method: 2 mg of I-77 powder was taken, 12 µL of PEG400 was added thereto and ultrasonically dissolved, and then 8 µL of Tween 80 was added and ultrasonically mixed to prepare a 100 mg/mL stock solution.
Experimental grouping: Wild type mice control group (Control) was administered vehicle solvent; The model mice group (Model) was administered solvent; The treatment group (I-77) was administered I-77 (20mpk, PO) to the model mice. The mice in the I-77 treatment group were intragastrically administered 200 µL of I-77 solution at a final concentration of […] which was prepared by dilution with double-distilled water; The same dose of solvent was administered to the remaining groups until the mortality rate of the model group exceeded 50%. The kidneys and heart were collected from the experimental endpoint samples. RNA extraction was performed on heart and kidneys samples, and the RNA was reversed to cDNA. Changes in gene expression of inflammation related cytokines (ISG15, CCL5, IP10, ISG56) in the tissues were detected using qPCR technology. Statistical method: One way ANOVA, *P<0.05, **P<0.01, ***P<0.001, ***P<0.0001.

Q: How did the “levels of IL6 and IP10 in plasma induced by MSA-2 injection” value ([1]; 1 hour before MSA-2 (10mpk), plasma ELISA after 4 hours, Figure 4) turn out when `CC1(C)C(=O)N(Cc2ccsc2)c2cc(C(=O)Nc3c[nH]c4ccccc34)ccc21` [Example I-77, N-(1H-indol-3-yl)-3,3-dimethyl-2-oxo-1-(thien-3-ylmethyl)indolin-6-carboxamide] was run?
A: Its value is “significantly reduced”.

Q: And the “inflammatory response of the heart and kidneys induced by MSA-2 stimulation” value ([1]; qPCR of ISG15, ISG56, IL6, IP10 in tissues, Figures 5, 6)?
A: The value was “inhibited the inflammatory response”.

Q: What about the IC50 [2] of the same compound?
A: The IC50 was 0.63 nM.

Q: And the “cardiac and renal inflammatory responses of STING V154M mutant model mice” value ([3]; qPCR of ISG15, CCL5, IP10, ISG56 in heart and kidneys, Figures 8, 9)?
A: Its value is “inhibit the cardiac and renal inflammatory responses”.

Q: And the “survival of STING V154M mutant model mice” value ([3]; until mortality of the model group exceeded 50%, Figure 7)?
A: The value was “significantly prolong the survival”.
